Test results: the NIST ThermoML archive (doi:10.1016/j.jct.2018.05.017)
± gives the expanded uncertainty stated by the source.

Columns and labels:
[1] = activity coefficient (dimensionless); of the first substance listed, at infinite dilution; xn = mol fraction of the nth substance listed; conditions: 101.33 kPa, Liquid, Chromatography, x1 = 0
[2] = 101.33 kPa, Liquid, Vibrating tube method

Row | Structure (SMILES) | activity coefficient ([1]; 313.15 K) | activity coefficient ([1]; 323.15 K) | activity coefficient ([1]; 333.15 K) | activity coefficient ([1]; 343.15 K) | activity coefficient ([1]; 353.15 K) | mass density ([2]; 313.15 K) [kg/m3] | mass density ([2]; 323.15 K) [kg/m3] | mass density ([2]; 333.15 K) [kg/m3] | mass density ([2]; 343.15 K) [kg/m3] | mass density ([2]; 353.15 K) [kg/m3]
1 | Cc1ccc(C)cc1 [1,4-dimethylbenzene] + CCCCCCn1cc[n+](C)c1C.F[B-](F)(F)F | 2.84 ± 0.3 | 3.05 ± 0.32 | 3.29 ± 0.35 | 3.51 ± 0.37 | 3.76 ± 0.4 |  |  |  |  | 
2 | CCC(C)O (stereo not given) [butan-2-ol] + CCCCCCn1cc[n+](C)c1C.F[B-](F)(F)F | 2.65 ± 0.28 | 2.56 ± 0.27 | 2.48 ± 0.26 | 2.38 ± 0.25 | 2.28 ± 0.24 |  |  |  |  | 
3 | CCCCCCn1cc[n+](C)c1C.F[B-](F)(F)F [1-hexyl-2,3-dimethylimidazolium tetrafluoroborate] |  |  |  |  |  | 1129.8 ± 2.4 | 1123.3 ± 2.4 | 1116.8 ± 2.4 | 1110.3 ± 2.4 | 1103.87 ± 2.4
4 | Cc1ccccc1C [1,2-dimethylbenzene] + CCCCCCn1cc[n+](C)c1C.F[B-](F)(F)F | 2.38 ± 0.25 | 2.57 ± 0.27 | 2.76 ± 0.29 | 2.97 ± 0.31 | 3.16 ± 0.33 |  |  |  |  | 
5 | CC(C)CC(C)(C)C [2,2,4-trimethylpentane] + CCCCCCn1cc[n+](C)c1C.F[B-](F)(F)F | 59.2 ± 6.2 | 59 ± 6.2 | 58.2 ± 6.1 | 57.5 ± 6.1 | 57.2 ± 6 |  |  |  |  | 
6 | C1=CCCCC1 [cyclohexene] + CCCCCCn1cc[n+](C)c1C.F[B-](F)(F)F | 9.89 ± 1 | 9.67 ± 1 | 9.51 ± 1 | 9.36 ± 0.98 | 9.08 ± 0.95 |  |  |  |  | 
7 | Cc1ccccc1 [toluene] + CCCCCCn1cc[n+](C)c1C.F[B-](F)(F)F | 2.21 ± 0.23 | 2.26 ± 0.24 | 2.31 ± 0.24 | 2.35 ± 0.25 | 2.4 ± 0.25 |  |  |  |  | 
8 | c1ccccc1 [benzene] + CCCCCCn1cc[n+](C)c1C.F[B-](F)(F)F | 1.54 ± 0.16 | 1.55 ± 0.16 | 1.57 ± 0.16 | 1.58 ± 0.16 | 1.59 ± 0.17 |  |  |  |  | 
9 | CCCCO [butan-1-ol] + CCCCCCn1cc[n+](C)c1C.F[B-](F)(F)F | 2.77 ± 0.29 | 2.67 ± 0.28 | 2.5 ± 0.3 | 2.37 ± 0.25 | 2.27 ± 0.24 |  |  |  |  | 
10 | CC(C)CO [2-methyl-1-propanol] + CCCCCCn1cc[n+](C)c1C.F[B-](F)(F)F | 2.28 ± 0.24 | 2.15 ± 0.23 | 2.01 ± 0.21 | 1.9 ± 0.2 | 1.85 ± 0.19 |  |  |  |  | 
11 | Cc1cccc(C)c1 [1,3-dimethylbenzene] + CCCCCCn1cc[n+](C)c1C.F[B-](F)(F)F | 3.37 ± 0.35 | 3.46 ± 0.36 | 3.59 ± 0.38 | 3.67 ± 0.39 | 3.79 ± 0.4 |  |  |  |  | 
12 | ClC(Cl)(Cl)Cl [tetrachloromethane] + CCCCCCn1cc[n+](C)c1C.F[B-](F)(F)F | 3.5 ± 0.37 | 3.61 ± 0.38 | 3.7 ± 0.4 | 3.72 ± 0.39 | 3.86 ± 0.41 |  |  |  |  | 
13 | C1CCCCC1 [cyclohexane] + CCCCCCn1cc[n+](C)c1C.F[B-](F)(F)F | 19.8 ± 2.1 | 19.6 ± 2.1 | 19.5 ± 2 | 19.1 ± 2 | 18.9 ± 2 |  |  |  |  | 
14 | C1COCCO1 [1,4-dioxane] + CCCCCCn1cc[n+](C)c1C.F[B-](F)(F)F | 1.08 ± 0.11 | 1.09 ± 0.11 | 1.1 ± 0.11 | 1.12 ± 0.11 | 1.13 ± 0.12 |  |  |  |  | 
15 | CC#N [acetonitrile] + CCCCCCn1cc[n+](C)c1C.F[B-](F)(F)F | 0.52 ± 0.06 | 0.54 ± 0.06 | 0.56 ± 0.06 | 0.57 ± 0.06 | 0.58 ± 0.06 |  |  |  |  | 
16 | CC(C)=O [acetone] + CCCCCCn1cc[n+](C)c1C.F[B-](F)(F)F | 0.84 ± 0.09 | 0.87 ± 0.09 | 0.9 ± 0.09 | 0.93 ± 0.09 | 0.96 ± 0.1 |  |  |  |  | 

More lines, now with the values ahead:

Row | activity coefficient ([1]; 313.15 K) | activity coefficient ([1]; 323.15 K) | activity coefficient ([1]; 333.15 K) | activity coefficient ([1]; 343.15 K) | activity coefficient ([1]; 353.15 K) | mass density ([2]; 313.15 K) [kg/m3] | mass density ([2]; 323.15 K) [kg/m3] | mass density ([2]; 333.15 K) [kg/m3] | mass density ([2]; 343.15 K) [kg/m3] | mass density ([2]; 353.15 K) [kg/m3] | Structure (SMILES)
17 | 0.96 ± 0.1 | 0.91 ± 0.09 | 0.86 ± 0.09 | 0.82 ± 0.08 | 0.78 ± 0.08 |  |  |  |  |  | CO [methanol] + CCCCCCn1cc[n+](C)c1C.F[B-](F)(F)F
18 | 31 ± 3.3 | 29.5 ± 3.1 | 27.9 ± 2.9 | 26.3 ± 2.8 | 25 ± 2.6 |  |  |  |  |  | CCCCCC [hexane] + CCCCCCn1cc[n+](C)c1C.F[B-](F)(F)F
19 | 1.4 ± 0.14 | 1.31 ± 0.13 | 1.23 ± 0.13 | 1.16 ± 0.12 | 1.09 ± 0.11 |  |  |  |  |  | CCO [ethanol] + CCCCCCn1cc[n+](C)c1C.F[B-](F)(F)F
20 | 25.4 ± 2.7 | 25.4 ± 2.7 | 24.9 ± 2.6 | 24.5 ± 2.6 | 23.9 ± 2.5 |  |  |  |  |  | CC1CCCCC1 [methylcyclohexane] + CCCCCCn1cc[n+](C)c1C.F[B-](F)(F)F
21 | 28.9 ± 3 | 25.6 ± 2.7 | 22.9 ± 2.4 | 20.6 ± 2.2 | 18.8 ± 2 |  |  |  |  |  | CCCCC [pentane] + CCCCCCn1cc[n+](C)c1C.F[B-](F)(F)F
22 | 1.6 ± 0.17 | 1.62 ± 0.17 | 1.63 ± 0.17 | 1.65 ± 0.17 | 1.58 ± 0.16 |  |  |  |  |  | C1CCOC1 [tetrahydrofuran] + CCCCCCn1cc[n+](C)c1C.F[B-](F)(F)F
23 | 0.7 ± 0.07 | 0.74 ± 0.08 | 0.8 ± 0.08 | 0.87 ± 0.09 | 0.93 ± 0.09 |  |  |  |  |  | ClCCl [dichloromethane] + CCCCCCn1cc[n+](C)c1C.F[B-](F)(F)F
24 | 125 ± 13 | 121 ± 13 | 112 ± 12 | 102 ± 11 | 92 ± 9.7 |  |  |  |  |  | CCCCCCCCCC [decane] + CCCCCCn1cc[n+](C)c1C.F[B-](F)(F)F
25 | 3.81 ± 0.4 | 3.84 ± 0.4 | 3.88 ± 0.41 | 3.93 ± 0.41 | 3.95 ± 0.42 |  |  |  |  |  | CCc1ccccc1 [ethylbenzene] + CCCCCCn1cc[n+](C)c1C.F[B-](F)(F)F
26 | 1.75 ± 0.18 | 1.67 ± 0.17 | 1.58 ± 0.16 | 1.46 ± 0.15 | 1.39 ± 0.14 |  |  |  |  |  | CC(C)O [propan-2-ol] + CCCCCCn1cc[n+](C)c1C.F[B-](F)(F)F
27 | 2.01 ± 0.21 | 2.12 ± 0.22 | 2.16 ± 0.23 | 2.21 ± 0.23 | 2.26 ± 0.24 |  |  |  |  |  | CCOC(C)=O [ethyl acetate] + CCCCCCn1cc[n+](C)c1C.F[B-](F)(F)F
28 | 47.9 ± 5 | 45.4 ± 4.8 | 42.8 ± 4.5 | 40.2 ± 4.2 | 37.4 ± 3.9 |  |  |  |  |  | CCCCCCC [heptane] + CCCCCCn1cc[n+](C)c1C.F[B-](F)(F)F
29 | 65.1 ± 6.8 | 64.1 ± 6.8 | 62.1 ± 6.5 | 61.2 ± 6.4 | 60.4 ± 6.4 |  |  |  |  |  | CCCCCCCC [octane] + CCCCCCn1cc[n+](C)c1C.F[B-](F)(F)F
30 | 1.74 ± 0.18 | 1.65 ± 0.17 | 1.53 ± 0.16 | 1.43 ± 0.15 | 1.33 ± 0.14 |  |  |  |  |  | CCCO [propan-1-ol] + CCCCCCn1cc[n+](C)c1C.F[B-](F)(F)F
31 | 89.5 ± 9.4 | 83.5 ± 8.8 | 77.8 ± 8.2 | 72.6 ± 7.7 | 67.4 ± 7.1 |  |  |  |  |  | CCCCCCCCC [nonane] + CCCCCCn1cc[n+](C)c1C.F[B-](F)(F)F
32 | 0.68 ± 0.07 | 0.72 ± 0.08 | 0.77 ± 0.08 | 0.82 ± 0.08 | 0.87 ± 0.09 |  |  |  |  |  | ClC(Cl)Cl [trichloromethane] + CCCCCCn1cc[n+](C)c1C.F[B-](F)(F)F
